Measurements reported in ChEMBL document CHEMBL1201862, “PubChem BioAssay data set” (2004).
Calls of active or inactive are those of the source.

How the values were obtained:
HeLa = experiment: ATP-based viability loss in HeLa cells – cell-based, CellTiter-Glo luminescence, cherry-pick samples, cytotoxicity control for MITF activator project, dose response (AID 540259); assay type: functional; conditions: Homo sapiens
[1] = luciferase reporter signal suppression in cells – H4 neuroglioma cells, luminescence, dose response (AID 1990); assay type: functional, cell-based
[2] = target: T1, Type-1 angiotensin II receptor (Homo sapiens, UniProt P30556); experiment: antagonism of angiotensin II type 1 receptor – cell-based, uHTS hits, selectivity assay for APJ receptor antagonist project, dose response (AID 463214); assay type: functional;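 further: antagonist potency against angiotensin II stimulated AT1 response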
T1 sequence (P30556 whole entry): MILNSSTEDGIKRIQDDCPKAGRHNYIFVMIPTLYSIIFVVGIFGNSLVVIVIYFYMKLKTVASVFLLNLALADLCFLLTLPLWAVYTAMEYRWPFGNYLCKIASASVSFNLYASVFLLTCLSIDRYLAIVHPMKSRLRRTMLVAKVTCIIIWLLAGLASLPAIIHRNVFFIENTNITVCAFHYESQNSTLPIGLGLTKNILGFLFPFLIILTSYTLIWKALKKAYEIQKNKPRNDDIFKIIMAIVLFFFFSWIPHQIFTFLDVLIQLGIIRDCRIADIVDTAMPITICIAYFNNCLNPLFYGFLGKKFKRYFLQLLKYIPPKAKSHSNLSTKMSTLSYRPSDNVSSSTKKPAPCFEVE

[3] = non-specific 3'UTR reporter inhibition in Clone20-Shn3RL – cell-based, Renilla luciferase, cherry-picked, counter-screen for Shn3 inhibitor project, dose response (AID 624133); assay type: functional
[4] = alpha-synuclein stem-loop luciferase translation blockers – H4 neuroglioma cells, luminescence, confirmation (AID 1988); assay type: functional, cell-based
[5] = Luminescence Cell-Based Dose Response HTS to Identify Inhibitors of 5'UTR Stem-Loop Driven Prion Protein mRNA Translation in H4 Neuroglioblastoma Cells. [Related pubchem assays: 1827 (Project Summary), 1813 (Primary HTS)]; assay type: functional
Streptokinase A = target: T2, Streptokinase A (Streptococcus pyogenes serotype M1, UniProt P10520); experiment: viability-normalized secreted streptokinase activity reduction – plasminogen activation absorbance, OD405, dose response (AID 1914); assay type: functional, Streptococcus pyogenes M1 GAS;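 further: secreted streptokinase activity via plasminogen activation per viability signal from cell pellet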
T2 sequence (P10520 whole entry): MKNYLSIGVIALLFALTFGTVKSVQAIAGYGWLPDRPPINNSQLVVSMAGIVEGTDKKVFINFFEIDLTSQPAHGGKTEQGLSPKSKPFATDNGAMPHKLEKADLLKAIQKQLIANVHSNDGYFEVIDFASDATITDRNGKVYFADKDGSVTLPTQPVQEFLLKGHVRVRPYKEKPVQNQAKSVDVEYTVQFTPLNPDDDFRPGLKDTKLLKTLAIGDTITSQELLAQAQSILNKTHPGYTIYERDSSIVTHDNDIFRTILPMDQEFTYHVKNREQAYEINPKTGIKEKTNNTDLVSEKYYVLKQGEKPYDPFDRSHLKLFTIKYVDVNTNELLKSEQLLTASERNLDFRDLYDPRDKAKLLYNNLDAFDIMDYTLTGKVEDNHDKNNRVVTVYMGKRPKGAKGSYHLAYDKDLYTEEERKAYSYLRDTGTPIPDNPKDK

[6] = reduction of Shn3 3'UTR-driven luciferase in osteoblasts – cell-based, Clone20 osteoblasts, firefly luciferase, cherry-picked, dose response (AID 624132); assay type: functional;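 further: firefly luciferase luminescence from reporter carrying the Shn3 3'UTR in osteoblasts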
Beta-galactosidase = Beta-galactosidase (Escherichia coli, UniProt Q8VNN2); experiment: PubChem AID 485352; assay type: functional
Chain of Beta-galactosidase (Q8VNN2 whole entry): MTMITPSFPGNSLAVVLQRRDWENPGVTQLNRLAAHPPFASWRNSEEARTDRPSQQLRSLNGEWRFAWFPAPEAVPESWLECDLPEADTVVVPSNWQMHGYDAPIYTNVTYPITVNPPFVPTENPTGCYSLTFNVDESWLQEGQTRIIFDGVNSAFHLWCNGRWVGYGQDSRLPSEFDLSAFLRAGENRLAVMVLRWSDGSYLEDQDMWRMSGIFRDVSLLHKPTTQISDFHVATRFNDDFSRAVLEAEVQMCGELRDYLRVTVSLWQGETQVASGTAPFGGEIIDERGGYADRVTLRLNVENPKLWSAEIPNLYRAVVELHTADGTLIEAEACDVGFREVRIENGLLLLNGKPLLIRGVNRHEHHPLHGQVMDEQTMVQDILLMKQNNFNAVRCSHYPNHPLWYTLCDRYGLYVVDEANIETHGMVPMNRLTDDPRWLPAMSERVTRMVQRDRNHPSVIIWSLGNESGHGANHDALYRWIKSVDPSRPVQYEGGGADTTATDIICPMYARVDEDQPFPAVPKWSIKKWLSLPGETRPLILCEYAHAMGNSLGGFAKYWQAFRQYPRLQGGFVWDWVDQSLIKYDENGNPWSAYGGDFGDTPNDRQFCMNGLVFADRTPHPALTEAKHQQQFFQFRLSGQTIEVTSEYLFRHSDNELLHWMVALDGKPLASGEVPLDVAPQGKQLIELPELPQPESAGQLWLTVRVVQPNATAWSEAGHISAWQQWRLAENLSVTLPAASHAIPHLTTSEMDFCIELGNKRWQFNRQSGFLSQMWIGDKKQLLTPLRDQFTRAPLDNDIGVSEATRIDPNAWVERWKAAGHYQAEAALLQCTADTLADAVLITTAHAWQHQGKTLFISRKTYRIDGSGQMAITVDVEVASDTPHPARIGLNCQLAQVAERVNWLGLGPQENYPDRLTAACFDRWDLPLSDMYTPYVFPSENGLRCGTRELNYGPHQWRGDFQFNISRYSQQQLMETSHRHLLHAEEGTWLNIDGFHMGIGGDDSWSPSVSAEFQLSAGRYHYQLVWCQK

[7] = loss of viability in HepG2 cells – cell-based, CellTiter-Glo, cherry-picked, cytotoxicity control for Shn3 inhibitor project, dose response (AID 624134); assay type: functional
Streptococcus = experiment: GAS UMAA2166 growth inhibition – luminescence, BacTiterGlo, counter-screen for streptokinase expression inhibitor project, dose response (AID 1915); assay type: functional, organism-based;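 further: potency for reduction of bacterial viability or growth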
[8] = test system: Streptococcus sp. 'group A'; experiment: Streptococcus pyogenes SK(-)GAS viability under kanamycin – luminescence, BacTiterGlo, confirmation, counter-screen for streptokinase expression inhibitor project, dose response (AID 1900); assay type: functional, organism-based
Protein RecA = target: T3, Protein RecA (Mycobacterium tuberculosis, UniProt P9WHJ3); experiment: Fluorescence Cell-Free Homogeneous Dose Retest to Identify Inhibitors of RecA-Intein Splicing Activity. [Related pubchem assays (depositor defined):AID2097, AID2223, AID489010, AID492950]; assay type: functional
T3 sequence (P9WHJ3 whole entry): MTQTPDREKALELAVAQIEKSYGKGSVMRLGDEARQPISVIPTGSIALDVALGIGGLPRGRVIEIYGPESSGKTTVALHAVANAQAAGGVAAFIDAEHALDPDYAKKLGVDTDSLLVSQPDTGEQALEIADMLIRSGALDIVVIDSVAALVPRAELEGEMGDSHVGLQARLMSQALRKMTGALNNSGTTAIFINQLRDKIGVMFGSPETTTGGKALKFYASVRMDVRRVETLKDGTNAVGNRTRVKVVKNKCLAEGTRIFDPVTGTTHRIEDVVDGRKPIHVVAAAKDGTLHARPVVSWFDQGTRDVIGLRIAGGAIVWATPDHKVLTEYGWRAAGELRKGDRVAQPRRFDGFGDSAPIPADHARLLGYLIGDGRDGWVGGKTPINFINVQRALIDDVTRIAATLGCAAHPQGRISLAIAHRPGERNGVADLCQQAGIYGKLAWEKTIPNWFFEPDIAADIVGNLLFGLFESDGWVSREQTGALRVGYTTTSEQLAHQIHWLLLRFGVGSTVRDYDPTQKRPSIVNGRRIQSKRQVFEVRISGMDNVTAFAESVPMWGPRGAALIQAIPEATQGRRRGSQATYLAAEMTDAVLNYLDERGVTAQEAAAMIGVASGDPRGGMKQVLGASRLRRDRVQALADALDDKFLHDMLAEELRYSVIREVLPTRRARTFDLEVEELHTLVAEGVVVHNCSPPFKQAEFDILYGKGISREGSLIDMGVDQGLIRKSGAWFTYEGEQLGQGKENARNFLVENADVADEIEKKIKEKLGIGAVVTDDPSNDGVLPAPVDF

[9] = target: T4, Replicative DNA helicase DnaB (Mycobacterium tuberculosis, UniProt P9WMR3); experiment: DnaB intein splicing inhibitors, dose response, biochemical, cell-free fluorescence (AID 449749); assay type: functional
T4 sequence (P9WMR3 whole entry): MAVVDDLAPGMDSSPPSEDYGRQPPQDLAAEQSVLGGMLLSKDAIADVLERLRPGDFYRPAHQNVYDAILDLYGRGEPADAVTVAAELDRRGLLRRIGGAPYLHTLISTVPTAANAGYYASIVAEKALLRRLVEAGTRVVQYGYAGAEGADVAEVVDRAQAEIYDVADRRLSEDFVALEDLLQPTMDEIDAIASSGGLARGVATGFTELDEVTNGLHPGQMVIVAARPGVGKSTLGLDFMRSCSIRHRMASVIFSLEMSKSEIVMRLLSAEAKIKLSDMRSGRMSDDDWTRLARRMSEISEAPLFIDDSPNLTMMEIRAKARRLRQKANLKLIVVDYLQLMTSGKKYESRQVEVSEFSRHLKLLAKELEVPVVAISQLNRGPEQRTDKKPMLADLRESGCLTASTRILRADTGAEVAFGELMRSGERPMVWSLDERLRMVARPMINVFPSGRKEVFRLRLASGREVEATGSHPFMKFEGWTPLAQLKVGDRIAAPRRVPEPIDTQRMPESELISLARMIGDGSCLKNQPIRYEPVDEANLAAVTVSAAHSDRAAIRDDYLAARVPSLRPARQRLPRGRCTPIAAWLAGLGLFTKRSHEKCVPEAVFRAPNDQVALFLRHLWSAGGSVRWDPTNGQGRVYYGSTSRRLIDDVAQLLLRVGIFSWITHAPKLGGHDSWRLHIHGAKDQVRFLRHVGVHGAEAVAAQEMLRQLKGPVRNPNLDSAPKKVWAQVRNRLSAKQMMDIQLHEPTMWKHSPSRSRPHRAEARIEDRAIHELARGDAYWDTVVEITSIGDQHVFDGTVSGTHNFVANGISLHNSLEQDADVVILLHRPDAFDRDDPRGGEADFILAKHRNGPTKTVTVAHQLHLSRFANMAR

Nonstructural protein 1 = Nonstructural protein 1 (Influenza A virus, UniProt Q194T2); assay type: functional, Influenza A virus (A/California/07/2009(H1N1))
Chain of Nonstructural protein 1 (Q194T2 whole entry): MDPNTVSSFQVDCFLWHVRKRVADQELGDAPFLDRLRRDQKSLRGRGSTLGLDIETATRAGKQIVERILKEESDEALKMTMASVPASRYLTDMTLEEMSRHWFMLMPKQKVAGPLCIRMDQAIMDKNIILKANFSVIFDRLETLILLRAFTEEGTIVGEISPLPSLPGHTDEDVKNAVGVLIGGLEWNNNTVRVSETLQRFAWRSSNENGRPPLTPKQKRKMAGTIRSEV

Coagulation factor XII = target: T5, Coagulation factor XII (Homo sapiens, UniProt P00748); assay type: functional;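 further: activated factor XIIa alpha cleaving a fluorogenic AMC peptide substrate; inhibitor potency from loss of enzyme activity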
T5 sequence (P00748 whole entry): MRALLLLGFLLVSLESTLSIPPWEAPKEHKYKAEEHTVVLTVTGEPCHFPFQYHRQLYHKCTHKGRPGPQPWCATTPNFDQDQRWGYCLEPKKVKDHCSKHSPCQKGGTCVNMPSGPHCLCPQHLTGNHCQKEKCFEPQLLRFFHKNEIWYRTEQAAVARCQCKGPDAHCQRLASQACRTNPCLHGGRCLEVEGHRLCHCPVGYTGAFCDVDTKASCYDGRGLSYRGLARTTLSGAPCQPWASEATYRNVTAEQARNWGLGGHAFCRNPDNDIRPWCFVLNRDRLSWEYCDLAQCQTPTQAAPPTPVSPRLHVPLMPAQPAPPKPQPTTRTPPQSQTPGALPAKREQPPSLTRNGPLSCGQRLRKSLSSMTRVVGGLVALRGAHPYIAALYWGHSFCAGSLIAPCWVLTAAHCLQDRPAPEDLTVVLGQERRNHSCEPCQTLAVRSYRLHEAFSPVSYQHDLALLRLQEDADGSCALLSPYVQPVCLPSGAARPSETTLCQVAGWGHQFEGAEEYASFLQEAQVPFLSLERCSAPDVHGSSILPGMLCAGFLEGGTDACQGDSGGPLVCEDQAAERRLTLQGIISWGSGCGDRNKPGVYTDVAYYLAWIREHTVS

Cytochrome P450 3A4 = Cytochrome P450 3A4 (Homo sapiens, UniProt P08684);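 further: CYP3A4 tested as one member of a cytochrome P450 panel screen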
Chain of Cytochrome P450 3A4 (P08684 whole entry): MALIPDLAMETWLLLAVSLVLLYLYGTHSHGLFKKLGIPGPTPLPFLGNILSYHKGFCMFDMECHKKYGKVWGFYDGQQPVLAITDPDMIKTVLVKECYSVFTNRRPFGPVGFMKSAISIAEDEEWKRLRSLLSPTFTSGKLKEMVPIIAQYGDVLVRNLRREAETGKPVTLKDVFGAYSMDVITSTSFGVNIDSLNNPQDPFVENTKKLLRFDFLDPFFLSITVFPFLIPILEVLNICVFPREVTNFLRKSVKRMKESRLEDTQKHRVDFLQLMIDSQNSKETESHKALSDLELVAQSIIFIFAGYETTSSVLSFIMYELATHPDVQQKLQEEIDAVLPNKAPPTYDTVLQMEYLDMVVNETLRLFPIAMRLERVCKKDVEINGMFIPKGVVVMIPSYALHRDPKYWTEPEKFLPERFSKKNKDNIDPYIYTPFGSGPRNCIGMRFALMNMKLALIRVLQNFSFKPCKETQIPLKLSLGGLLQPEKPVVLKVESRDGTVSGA

Cytochrome P450 2D6 = Cytochrome P450 2D6 (Homo sapiens, UniProt P10635);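 further: CYP2D6 member of a cytochrome P450 panel assay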
Chain of Cytochrome P450 2D6 (P10635 whole entry): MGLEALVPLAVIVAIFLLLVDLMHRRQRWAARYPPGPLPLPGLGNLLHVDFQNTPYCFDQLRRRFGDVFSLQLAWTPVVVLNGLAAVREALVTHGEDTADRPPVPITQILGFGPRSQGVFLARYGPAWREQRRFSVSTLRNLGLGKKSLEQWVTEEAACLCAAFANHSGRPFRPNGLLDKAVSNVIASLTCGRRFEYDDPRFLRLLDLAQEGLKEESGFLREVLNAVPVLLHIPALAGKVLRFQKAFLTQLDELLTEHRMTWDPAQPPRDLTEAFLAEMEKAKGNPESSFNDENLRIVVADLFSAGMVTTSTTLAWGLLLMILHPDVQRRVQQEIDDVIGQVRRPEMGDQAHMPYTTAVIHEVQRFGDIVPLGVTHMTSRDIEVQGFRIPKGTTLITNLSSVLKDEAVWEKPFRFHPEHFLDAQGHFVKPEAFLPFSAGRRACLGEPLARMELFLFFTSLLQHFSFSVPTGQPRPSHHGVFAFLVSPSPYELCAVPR

## O=C(N=Nc1c(O)n(Cc2ccccc2)c2ccccc12)c1ccc(O)cc1
HeLa
  AC50: 39.7 µM (active)

## Cc1ccc(CS(=O)(=O)c2ncc(Cl)c(C(=O)Nc3ccc(OC(F)F)cc3)n2)cc1
[1]
  EC50: > 120 µM (not active)
[2]
  IC50: 11.3 µM (active)
[3]
  AC50: 13.5 µM (active)
[4]
  EC50: 18.1 µM (active)
[5]
  EC50: 12.7 µM (active)
Streptokinase A
  EC50: 2.07 µM (active)
[6]
  AC50: 2.34 µM (active)
Beta-galactosidase
  EC50: > 40 µM (inactive)
[7]
  AC50: 61.5 µM (active)
Streptococcus
  EC50: 22.1 µM (active)
[8]
  EC50: 8.23 µM (active)

## COc1ccc2nc3ccccc3nc2c1N
Protein RecA
  EC50: 22.1 µM (active)
[9]
  AC50: 40.1 µM (active)
Nonstructural protein 1
  IC50: 32.5 µM (active)
Coagulation factor XII
  IC50: > 50 µM (inactive)

## COc1ccc(C(=O)N2CCC3(CCN(Cc4nccs4)CC3)CC2)cc1
Cytochrome P450 3A4
  AC50: inconclusive

## O=C(NNS(=O)(=O)c1ccc(Cl)cc1)C1CCN(Cc2ccccc2)CC1
Cytochrome P450 3A4
  AC50: inconclusive
Cytochrome P450 2D6
  AC50: 1 µM (inconclusive)
